Laboratory results as given in patent US4285956A, “Xanthene and thioxanthene derivatives, compositions thereof and treatment therewith” (priority 1978, dated 1981).

What was measured:
[1] = Methylphenidate antagonism (mice biting corrugated paper); assay type: in vivo; conditions: Mus musculus, ip
Description: Methylphenidate antagonism (ED50 mg/kg i.p.)
Perspex observation cages without bottom and lid, consisting of 5 sections each measuring 12×25×30 cm. White corrugated paper. Mice, male, 18-25 g.
The test substance is given i.p. in the doses 0, 1/8, 1/32 and 1/128 of the determined "i.p. LD50". 3×2 mice are used for each dose level. Two or 24 hours after injection of test substance, methylphenidate, 60 mg/kg, is injected s.c. After administration of methylphenidate the mice are placed in the observation cages, 2 in each cage, where they remain for exactly 1 hour. The cages are placed on corrugated paper, the corrugations facing upwards. It is examined whether the mice have been biting the corrugated paper or not. […] If one or more of the control pairs have not been biting, the test has to be repeated on a new set of mice.
The result is stated in fractions: 0/3, 1/3, 2/3 and 3/3 where 0, 1, 2 and 3 are the number of pairs which have not been biting on receipt of the dose in question.
The results are calculated as the dose (ED50), which causes antagonism in 50% of the test animals.

[2] = Amphetamine antagonism (stereotypy in rats); assay type: in vivo; conditions: Rattus norvegicus
[3] = Neuroleptic effect: duration and strength (remarks of Table 2); assay type: in vivo; conditions: in words; for Duration (remarks, words): duration of neuroleptic effect; for Strength of effect (remarks, words): strength of neuroleptic effect
Excerpt: The pharmacological testing of the novel xanthones and thioxanthenes of Formula I consisted of standard and reliable tests. […]

[4] = Catalepsy wire mesh, rat, max.; assay type: in vivo, rats; conditions: for ED50: Rattus norvegicus, sc, rats, s.c., strongest effect within first 6 hours, read-out: Catalepsy wire mesh, rat, max. ED50
Description: Catalepsy wire mesh, rat, max. (ED50 mg/kg s.c.)
A vertical wire netting (50 cm×49 cm). The meshes (openings) of the netting are square (1 cm×1 cm). The wire diameter is 2 mm. Stop watch. Rats, male, 180-200 g.
The animals are labeled and used in groups of five. The test substance is injected subcutaneously (s.c.) (5 ml/kg) at 4 dose levels selected from the fixed dose scale.
The animals are placed in the middle of the vertical wire netting 60, 120, 180, 240, 300 and 360 minutes after injection of the test compound. The animals are considered cataleptic when they remain immobile during a period of 15 seconds. This cataleptic reaction is designated +. If the rats are "atonic" and passively slide down the wire mesh they are considered not cataleptic. If the animals climb up and down the wire mesh they are nor cataleptic. In both situations the designation - is used.

[5] = mice, i.p., methylphenidate 60 mg/kg s.c. 2 h after test substance, read-out: Methylphenidate antagonism ED50, 2 h
[6] = mice, i.p., methylphenidate 60 mg/kg s.c. 24 h after test substance, read-out: Methylphenidate antagonism ED50, 24 h
[7] = ip, 24 h, read-out: Amphetamine antagonism ED50
[8] = po, read-out: Amphetamine antagonism ED50, p.o.
[9] = 2 h, read-out: Methylphenidate antagonism ED50, 2 h
[10] = 24 h, read-out: Methylphenidate antagonism ED50, 24 h

Compound | ED50 [1, 5] [mg/kg] | ED50 [1, 6] [mg/kg] | ED50 [2, 7] [mg/kg] | Duration (remarks, words) [3] | Strength of effect (remarks, words) [3] | ED50 [4] [mg/kg] | Cataleptic activity ([4]; in words) | ED50 [2, 8] [mg/kg] | ED50 [1, 9] [mg/kg] | ED50 [1, 10] [mg/kg]
O=C1OCCN1CCN1CCC(=C2c3ccccc3Sc3ccc(Cl)cc32)CC1 [Lu 14-106, 1-(2-(2-Oxazolidinone-3-yl)ethyl)-4-(2-chloro-9-thioxanthenylidene)piperidine] | 0.51 | > 40 | 1 | short acting | strong | 6.6 | – | – | – | –
CSc1ccc2c(c1)C(=C1CCN(C[C@H]3CC[C@H](O)CC3)CC1)c1ccc(F)cc1S2 [Lu 14-116, 1-(trans-4-hydroxycyclohexylmethyl)-4-(2-methylthio-6-fluoro-9-thioxanthenylidene)-piperidine] | 0.44 | 0.38 | 0.28 | long acting | strong | 0.58 | – | – | – | –
O=C1OCCN1CCN1CCC(=C2c3ccc(F)cc3Sc3ccc(Cl)cc32)CC1 [Lu 14-117, 1-(2-(2-Oxazolidinon-3-yl)ethyl)-4-(2-chloro-6-fluoro-9-thioxanthenylidene)piperidine] | 0.21 | 29 | 0.34 | short acting | strong | 1 | – | – | – | –
Fc1ccc2c(c1)Sc1ccc(C(F)(F)F)cc1C2=C1CCN(CC2CCOCO2)CC1 (stereo not drawn) [Lu 14-130, 1-(1,3-Dioxan-4-ylmethyl)-4-(2-trifluoromethyl-6-fluoro-9-thioxanthenylidene)piperidine] | 0.77 | 0.7 | 0.62 | long acting | moderately strong | 2.8 | – | – | – | –
O[C@H]1CC[C@@H](CN2CCC(=C3c4ccc(F)cc4Sc4ccc(C(F)(F)F)cc43)CC2)CC1 [Lu 15-013, 1-(cis-4-hydroxycyclohexylmethyl)-4-(2-trifluoromethyl-6-fluoro-9-thioxanthenylidene)piperidene] | 0.63 | 0.1 | 0.76 | long acting | strong | 1.2 | – | – | – | –
CSc1ccc2c(c1)C(=C1CCN(C[C@H]3CC[C@H](O)CC3)CC1)c1ccccc1S2 [Lu 15-019, 1-(trans-4-hydroxycyclohexylmethyl)-4-(2-methylthio-9-thioxanthenylidene)-piperidine] | 0.77 | > 40 | 0.59 | short acting | moderately strong | 0.6 | – | – | – | –
OC1CC(O)(CN2CCC(=C3c4ccc(F)cc4Sc4ccc(C(F)(F)F)cc43)CC2)CC(O)C1O (stereo not drawn) [Lu 15-089] | 0.32 | 0.32 | 1.8 | relatively short acting | – | 2.7 | – | – | – | –
CSc1ccc2c(c1)C(=C1CCN(C[C@H]3CC[C@H](O)CC3)CC1)c1ccc(F)cc1O2 [Lu 15-119, 1-(Trans-4-hydroxycyclohexylmethyl)-4-(2-methylthio-6-fluoro-9-xanthenylidene)piperidine] | 0.09 | 0.11 | 0.56 | long acting | very strong | 0.08 | have a cataleptic activity | – | – | –
Cc1ccc2c(c1)Sc1ccc(C(F)(F)F)cc1C2=C1CCN(C[C@H]2CC[C@H](O)CC2)CC1 [Lu 16-014, 1-(trans-4-hydroxycyclohexylmethyl)-4-(2-trifluoromethyl-6-methyl-9-thioxanthenylidene)-piperidine] | 0.31 | 1.9 | 1 | long acting | moderately strong | 0.97 | – | – | – | –
N[C@H]1CC[C@H](CN2CCC(=C3c4ccc(F)cc4Sc4ccc(C(F)(F)F)cc43)CC2)CC1 [Lu 16-042] | 1.2 | 0.17 | – | long acting | strong | 3.3 | – | 2.5 | – | –
COc1ccc2c(c1)C(=C1CCN(C[C@H]3CC[C@H](O)CC3)CC1)c1ccc(F)cc1S2 [Lu 16-052, 1-(trans-4-hydroxycyclohexylmethyl)-4-(2-methoxy-6-fluoro-9-thioxanthenylidene)-piperidine] | 0.31 | 29 | 0.56 | short acting | moderately strong | 0.23 | – | – | – | –
O=C1CCC(CN2CCC(=C3c4ccc(F)cc4Sc4ccc(C(F)(F)F)cc43)CC2)CC1 [Lu 16-088] | 0.77 | 0.06 | – | long acting | strong | 0.81 | – | 0.3 | – | –
O=C1NCCN1CCN1CCC(=C2c3ccc(F)cc3Sc3ccc(C(F)(F)F)cc32)CC1 [Lu 16-104] | 0.06 | 1.5 | 0.15 | relatively short acting | strong | 0.11 | – | – | – | –
O=C1NCCN1CCN1CCC(=C2c3ccccc3Sc3ccc(Cl)cc32)CC1 [Lu 16-105] | 0.16 | 28 | 1.2 | short acting | strong | 0.38 | – | – | – | –
CN(C)CCCN1c2ccccc2Sc2ccc(Cl)cc21 [chlorpromazine, reference compound] | – | – | 7.1 | short acting | moderatley strong | 5.6 | – | – | 4 | 20
CN(C)CC/C=C1/c2ccccc2Sc2ccc(Cl)cc21 [chlorprothixene, reference compound] | – | – | 6.1 | short acting | moderately strong | 4 | – | – | 0.71 | > 20
OCCN1CCN(CCC=C2c3ccccc3Sc3ccc(Cl)cc32)CC1 [clopenthixol, reference compound] | 1.2 | – | 0.77 | short acting | moderately strong | 0.95 | – | – | – | –
CN1CCN(C2=Nc3cc(Cl)ccc3Nc3ccccc32)CC1 [clozapine, reference compound] | – | – | > 40 | short acting | weak | 85 | – | – | > 160 | –
OCCN1CCN(CCC=C2c3ccccc3Sc3ccc(C(F)(F)F)cc32)CC1 [flupentixol, reference compound] | – | – | 0.69 | short acting | strong | 0.25 | – | – | 0.2 | > 20
OCCN1CCN(CCCN2c3ccccc3Sc3ccc(C(F)(F)F)cc32)CC1 [fluphenazine, reference compound] | – | – | 0.08 | short acting | very strong | 0.099 | – | – | 0.04 | 3.6
O=C(CCCN1CCC(O)(c2ccc(Cl)cc2)CC1)c1ccc(F)cc1 [haloperidol, reference compound] | – | – | 0.14 | short acting | very strong | 0.21 | – | – | 0.06 | –
